Reference: US20050239152A1, “Continuous-flow enzyme assay” (Kiadis B.V., priority 2002, published 2005)

Key:
[1] = target: T1, Cathepsin B (E.C. 3.4.22.1, from bovine spleen) (Bos taurus, UniProt P07688); conditions: FI-CF system, FIG. 7; antipain compared with E64
Description: The enzymatic assay was performed in a continuous-flow ESI-TOF-MS system where the enzyme cathepsin B and the substrate Z-FR-AMC were subsequently added to the carrier solution of a flow injection system simulating the effluent of an LC column. As a consequence, cathepsin B was continuously incubated with Z-FR-AMC, resulting in a continuous supply of converted substrate. The product was pumped into the mass spectrometer and monitored. Various compounds were injected into the continuous-flow system, incubated with the enzyme in a reaction coil and subsequently pumped into the mass spectrometer. […]
More in detail, samples were analyzed by two different continuous-flow (CF) systems, which both consisted of a homogeneous bioassay coupled to a Micromass (Wythenshawe, UK) Q-Tof micro mass spectrometer. […] The amount of formed product was determined by MS, which was equipped with a Micromass Z-spray electrospray ionization (ESI) source. […]
Carrier solution (20 μL/min) was mixed continuously with cathepsin B solution (10 μL/min) in reaction coil A for 40 sec, and carrier/cathepsin B solution with Z-FR-AMC solution (30 μL/min) in reaction coil B for 45 sec. The resulting flow (40 μL/min) coming out of reaction coil B was pumped into the mass spectrometer, where the amount of formed product was directly monitored by ESI-TOF-MS. […]

[2] = target: T1, Cathepsin B (E.C. 3.4.22.1, from bovine spleen); assay: LC-continuous-flow (LC-CF) ESI-TOF-MS cathepsin B assay, substrate Z-FR-AMC; conditions: LC-CF system, FIG. 8; mixture injected, E64 40 μM, CA-074 90 μM
Description: For the HPLC screening, solutions were prepared as described herein-above and filled in superloops. Used concentrations were 30 nM cathepsin B and 6 μM internal standard 1, and 50 μM Z-FR-AMC and 6 μM internal standard 2, for superloop 1 and superloop 2, respectively. Injected inhibitors: E64 and CA074, which were in mixture injected (E64: 40 μM; CA-074: 90 μM). […] Compounds injected via an autoinjector were separated by the LC-column, using a binary gradient system consisting of carrier solution and methanol. In order to reduce the amount of methanol that was necessary for separation, a makeup solution was added to the column effluent, resulting in a constant methanol concentration of 10%. Decreasing the concentration of methanol was necessary to prevent enzyme degradation. […] In the LC-CF system, both the enzyme solution and the substrate solution were delivered at a flow rate of 50 μL/min, resulting in a total flow rate of 100 μL/min into the mass spectrometer.
The RP-separation was performed by a binary gradient system, using water and methanol. The organic modifier, however, decreases the activity of enzymes. For this reason, a makeup flow was added after the LC-column (see FIG. 5) to reduce the concentration of methanol. […] This flow was used as the carrier solvent that was pumped into the continuous-flow system. […]

`CC(C)C[C@H](NC(=O)[C@H]1O[C@@H]1C(=O)O)C(=O)NCCCCN=C(N)N` (relative stereo) [E64, trans-epoxysuccinyl-L-leucylamido-(4-guanidino)butane] was tested, and the “injected concentration giving more or less the same area of negative peaks” value [1] was 0.50 µM and the “negative peak in product mass trace after LC separation” value [2] was “caused by inhibition”.
